The nature of experiment [1]: Dose required to inhibit proliferation of human peripheral blood mononuclear cells (PMBC). It is filed as functional.
The test system of the next experiment is HL-60. As to the kind of experiment: Dosage required for differentiation of HL-60 cells to monocytes. It counts as functional, Homo sapiens.
Another experiment deals with Mus musculus. The experiment can be described thus: Dose required to induce hypercalcemia after administration in mice. It is filed as functional.

The structures appear in SMILES notation.

As for `C=C1/C(=C\C=C2/CCC[C@]3(C)[C@@H]2CC[C@H]3[C@@H](C)CCCC(C)(C)O)C[C@@H](O)C[C@@H]1O`, the Dose (in experiment [1]; in the experiment on HL-60) was 100 nM each time. Turning to `C=C1/C(=C\C=C2/CCC[C@]3(C)[C@@H]([C@H](C)CCCC(C)(C)O)CC[C@@H]23)C[C@@H](O)C[C@@H]1O` [CALCITRIOL], in the experiment with Mus musculus, the Dose is 0.1 µg/kg.
